According to patent US12453737B2, “Method for hydrating lyophilized cyclophosphamide composition and product thereof” (priority 2018, dated 2025):
Like-named read-outs stand apart in the source and are kept apart here.

What was measured:
[1] = assay type: physicochemical; settings: hydration pressure 50 kPa
[2] = assay type: physicochemical; settings: reconstituted with 0.9% sodium chloride injection to 20 mg/ml
Description: Then content and impurity profiles in Room Temperature (RT) and Refrigerator (2-8° C.) are determined respectively.

[3] = Skeletal density (gas pycnometer); assay type: physicochemical; settings: no strength, no hydration solution
Description: Skeletal Density, also known as true density, is determined at room temperature by Gas Pycnometer (Micromeritics Accupyc II 1340).

[4] = assay type: physicochemical; settings: hydration solution NA, 0.9% sodium chloride, 250 rpm, room temperature
Description: Then the glass vial was placed on cyclotron (HY-5, Shanghai Suhao intelligent system Co. Ltd) making the glass vial oscillate at 250 rpm at room temperature to dissolve the active ingredient completely. The redissolving time was recorded in Table 18.

[5] = assay type: physicochemical; settings: no hydration solution
Description: The hydrated CPP freeze-dried composition was stirred by weighting scoop gently until flowable powder comes into being. Then 1-2 g test sample was added on injection plate. Test method and parameters were as follows:
It will be understood by a person of ordinary skill in the art that a common approach to defining the distribution width is to cite three values on the x-axis, the D10, D50, and D90. As used herein, the term (“D50” refers to the median particle diameter, wherein half of the particle population has a diameter below such value. As used herein, the teed “D90,” refers to the particle diameter wherein 90% of the particle population has a diameter below such value. As used herein, the term “D10,” refers to the particle diameter wherein 10% of the particle population has a diameter below such value. PSD results were listed in Table 19.

[6] = assay type: physicochemical; settings: strength NA, hydration solution NA
Description: BD is calculated by the following formula: BD (g/mL)=W/V0 • wherein • W is the theoretical weight, g; • V0 is the macroscopic volume, mL. • V0 is calculated by the following formula: V0 (mL)=πD^2h/4 • wherein • D is the theoretical inside diameter, cm; • h is the height, cm.

[7] = assay type: physicochemical; settings: no strength, no hydration solution
Description: TD of the test sample is measured as per the Method I described in USP <616> which is obtained by mechanically tapping a graduated measuring cylinder (TAP Density Tester, Sotax TD2) containing the test sample.

[8] = Stability in 45° C. oven, CPP content; assay type: physicochemical; settings: raw material, comparison
Description: The moisture content, CPP content and redissolving time were determined for CPP freeze-dried composition hydrated with saturated sodium chloride solution in the freeze-drying box, respectively. In addition, the CPP freeze-dried compositions hydrated for 16 h and 24 h were placed in 45° C. oven and sampled for determining CPP contents after 1 week and 2 weeks, respectively.
Moisture content, CPP content and redissolving time were determined for CPP freeze-dried composition hydrated with saturated sodium chloride solution in the dryer, respectively. In addition, the CPP freeze-dried composition hydrated for 16 h was placed in 45° C. oven, sampled after 1 week and 2 weeks, respectively and determined for CPP contents. The CPP freeze-dried composition hydrated for 16 h was placed in 40° C./75% RH stability test chamber, was sampled after 1 month and 3 months, and determined for CPP contents, which were compared with CPP monohydrate obtained by prior art hydrating process.
The moisture content, CPP content and redissolving time were determined for CPP freeze-dried composition hydrated with saturated potassium sulfate solution in the dryer, respectively. In addition, the CPP freeze-dried composition hydrated for 16 h was placed in 45° C. oven and was sampled for determining CPP contents after 1 week and 2 weeks, respectively. […]

[9] = Stability in 40° C./75% RH stability test chamber, CPP content; assay type: physicochemical; settings: raw material, comparison
Description: The CPP freeze-dried composition hydrated for 16 h was placed in 40° C./75% RH stability test chamber, was sampled after 1 month and 3 months, and determined for CPP contents, which were compared with CPP monohydrate obtained by prior art hydrating process.
The CPP freeze-dried composition hydrated for 16 h was placed in 40° C./75% RH stability test chamber, sampled after 1 month and 3 months for determining CPP contents.

## O=P1(N(CCCl)CCCl)NCCCO1 (stereo not drawn) [P—[N,N-bis(β-chloroethyl)]-1-oxa-3-aza-2-phosphocyclohexane-P-oxide]
[1]; 45° C. -1 Week
  Content (%): 82.6%
  Impurity A (%): 0.65%
  Impurity B (%): 0.61%
  Impurity D (%): 0.71%
  Max. individual unknown impurity (%): 2.01%
  Total impurities (%): 5.66%
[1]; 45° C. -2 Weeks
  Content (%): 45.8%
  Impurity A (%): 1.82%
  Impurity B (%): 1.40%
  Impurity D (%): 0.98%
  Max. individual unknown impurity (%): 1.56%
  Total impurities (%): 15.59%
[2]; 0 h (initial)
  Impurity A: 0.03
  Impurity B: 0.03
  Impurity D: 0.00
  Individual unknown impurity: 0.08
  Total impurities: 0.15
[2]; 3 Days (2-8° C.)
  Content: 96.7%
  Impurity A: 0.00
  Impurity B: 0.45
  Impurity D: 0.00
  Individual unknown impurity: 0.09
  Total impurities: 0.57
[2]; 6 Days (2-8° C.)
  Content: 95.2%
  Impurity A: 0.00
  Impurity B: 0.64
  Impurity D: 0.00
  Individual unknown impurity: 0.12
  Total impurities: 0.77
[2]; 6 h (RT)
  Content: 95.3%
  Impurity A: 0.00
  Impurity B: 0.71
  Impurity D: 0.00
  Individual unknown impurity: 0.06
  Total impurities: 0.81
[2]; 12 h (RT)
  Content: 96.7%
  Impurity A: 0.00
  Impurity B: 1.01
  Impurity D: 0.05
  Individual unknown impurity: 0.14
  Total impurities: 1.33
[2]; 24 h (RT)
  Content: 97.0%
  Impurity A: 0.03
  Impurity B: 1.82
  Impurity D: 0.30
  Individual unknown impurity: 0.47
  Total impurities: 2.64
[3]
  Skeletal Density: 1.4286 g/mL
[4]; strength 0.5 g
  Redissolving Time: 8.7 min
[4]; strength 1 g
  Redissolving Time: 11.2 min
[4]; strength 2 g
  Redissolving Time: 16.4 min
[5]
  D10 (μm): 5.6 μm
  D50 (μm): 34.8 μm
  D90 (μm): 262.0 μm
[6]
  Bulk Density: 0.6246 g/mL
[7]
  Tapped Density: 0.9369 g/mL

## O=P1(N(CCCl)CCCl)NCCCO1 (stereo not shown) [CPP monohydrate raw material, Cyclophosphamide monohydrate]
[8]
  Stability-CPP content % 45° C.-2 weeks: 101.8%
[9]
  Stability-CPP content % 40° C./75% RH-3 months: 86.1%
